Nine molecules from paper PMC11726359, “Discovery of Rezatapopt (PC14586), a First-in-Class, Small-Molecule Reactivator of p53 Y220C Mutant in Development” (ACS Medicinal Chemistry Letters, 2024) can be followed below.

The term IC50 denotes the concentration that inhibits the measured activity by half. Broadly, the Papp is a coefficient for how fast a substance crosses the barrier.

Series [1] deals with T1, recombinant His-tag Y220C p53 DNA binding domain (Homo sapiens, UniProt P04637, Y220C).
T1 construct: Y220C p53 DBD protein (amino acids #94-312); made in house
The series is described as follows: TR-FRET DNA binding assay (SC150). Type of series: biochemical. An excerpt:
At the outset of our hit generation campaign, several small molecules targeting the p53 Y220C mutant protein were identified. Two notable examples, supported by crystallographic data, were the compounds from the carbazole series[6] (PhiKan83) and the iodophenol series[7] (PK1596) (Figure 1). To assess the in vitro potency of the p53 Y220C reactivators, a time-resolved fluorescence resonance energy transfer (FRET) assay was developed. In this assay, recombinant His-tag Y220C p53 DNA binding domain binds to biotin-labeled consensus DNA, and the FRET signal is measured between the allophycocyanin-conjugated anti-His-tag antibody and europium-conjugated streptavidin. The […] concentration required to increase DNA binding by 1.5-fold (SC150) could then be determined. The carbazole compound (PhiKan83) enhanced DNA binding with an SC150 of 37.2 μM. […]
Time-Resolved Fluorescence Resonance Energy Transfer (TR-FRET) Assay
DNA binding activity was measured by the TR-FRET assay. In this assay, the recombinant His6-tag Y220C p53 DNA binding domain (DBD) protein binds to biotin labeled consensus DNA. The binding of recombinant His6-tag Y220C p53 DBD protein and biotin-labeled consensus DNA is detected by the fluorescence resonance energy transfer (FRET) between allophycocyanin (APC) conjugated anti-His6 tag antibody and Europium-(Eu) conjugated Streptavidin. Test compounds, at 2 mM stock in DMSO, were diluted t hr e e-f ol d in serial dilutions in DMSO and 1.2 µL per well were added into 384-well polypropylene black plates (NUNC). Subsequently, 30 µL per well of 181 nM recombinant His6-tag Y220C p53 DBD protein (amino acids #94-312) and 9.1 nM of APC conjugated anti-His6 tag antibody (Columbia Biosciences) in ice-cold Assay Buffer 1 (50 mM Tris-HCl, pH 7.4, 75 mM KCl, 0.75 mM DTT and 0.2 mg/mL bovine serum albumin [BSA]) was added. As a background control, 30 µL of Assay Buffer 1 containing 9.1 nM of APC anti-His6 antibody (no Y220C protein) was also added into a second set of serial diluted compound plates. The samples were centrifuged at 1,200 rpm (Eppendorf 5810R plate centrifuge) for 1 minute and incubated at room temperature (20 °C) for 15 min. The samples were then incubated at 27 °C in a water bath for 48 min. Afterwards, 5 µL per well of 145 nM biotin labeled oligonucleotide from a consensus DNA p53 response element (a DNA duplex with 5’ to 3’sequence of […]
and biotin attached to the 3’ end of the complementary DNA) and 8.8 nM Eu-conjugated streptavidin (Columbia Biosciences) in Assay Buffer 2 (50 mM Tris-HCl, pH 7.4, 75 mM KCl and 0.2 mg/mL BSA) were added. The samples were centrifuged at 1,200 rpm for 1 min and incubated at room temperature (20 °C) for 20 min. Assay signals were monitored by reading excitation at 340 nm, and emission fluorescence at 615 and 665 nm, on an Envision reader (Perkin El mer). Normalized TR -FRET assay signal (Rn) was calculated by the formula:
Rn = [(A − B a − C × (D − Bd))/(D − Bd)] × (Dc − B d),
C = (Ac − B a)/(Dc − B d), […]
For orientation: TR-FRET usually uses a lanthanide donor and a delayed reading to cut background.

A short description of series [2]: Half-life in human liver microsomes. The format is in vitro ADME. The conditions noted are these: read-out: half-life (T1/2). An excerpt:
However, there was a significant improvement in potency with fluorine substitution at the hydrophobic anchor (R3 = CF3, compound 7). […] The trifluoromethyl group remained the best anchor throughout the hit expansion and drug discovery campaign. Assessment of the 4-substituted indole compounds (R1 = H, compounds 8–14) led to a breakthrough regarding the potency of the compounds. Our molecular modeling predicted that the side chain of Threonine-150 within the p53 Y220C protein would form a hydrogen bond with the ligand. This interaction helped to orient the ligand in the binding pocket of the p53 Y220C mutant protein and enhance other interactions such as hydrophobic and van der Waals interactions. […] With the nitrogen atom in place, various polar groups were assessed, and it was determined that basic nitrogen, such as that in the piperidine ring, was preferred for maintaining the potency of the compound (R2 = S5). Many substituents can be tolerated for the aromatic ring occupying the subsite.
On the technique in general: Liver microsomes are vesicles of endoplasmic reticulum, rich in cytochrome P450 enzymes.

For series [3], the system named is NUGC-3, gastric cancer cell line with a TP53 Y220C mutation. The series is described as follows: MTT cell proliferation assay. The settings on record: for IC50: Homo sapiens, NUGC-3, 120 h, NUGC-3 cells, five days incubation. The format is cell-based, human. The method, then:
We also evaluated the effects of these compounds on the growth and viability of four cancer cell lines in vitro. Two of the cell lines (NUGC-3, gastric cancer cell line with a TP53 Y220C mutation and T3M-4, pancreatic carcinoma cell line) have the TP53 Y220C mutation leading to the p53 Y220C mutant protein; SJSA-1 is a p53 WT cell line, and NUGC-3-KO is an isogenic p53 knockout cell line.[11] After incubating the cells with the compounds for five days, cell viability was measured using the 3-(4,5-dimethylthiazol-2-yl)-2,5-diphenyltetrazolium bromide (MTT) assay.
C = (Ac − B a)/(Dc − B d),
Prism (GraphPad) or XLfit software (IDBS).
Cells were seeded at an appropriate
Compounds were tested at eight concentrations with 2-fold serial dilutions. […]
with a reference wavelength of 650 nm. […]
untreated cells (control). […]
For orientation: Formazan colour is commonly taken as a measure of viable cells.

Series [4] in a line: Pharmacokinetic study in mice. The conditions noted are these: 50 mg/kg.
Experimental: (§1) Pharmacokinetic parameters were evaluated in female CD-1 mice. Animals received an oral gavage dose of 50 mg/kg of the test article. The test article was formulated in a solution containing 2% hydroxypropyl
(§2) cellulose and 0.5% Tween 80 in water. Blood samples were collected at 0.5, 1, 2, 4, 7, and 24 h post dose.
(§3) Blood samples were processed into plasma, and the concentrations of the test article were determined by
(§4) LC-MS/MS. P harmacokinetic parameters were calculated using the Phoenix WinNonlin 6.3 program,
(§5) employing a non- compartmental model 200.
Series [5] can be described thus: Caco-2 permeability. Type of series: in vitro ADME. The conditions noted are these: human. An excerpt: Significant efforts were dedicated to the optimization of compound 13, and a successful approach involved fluorine substitution of the piperidine ring. Fluorine substitution often plays a crucial role in medicinal chemistry, exerting a substantial impact on the characteristics of drug molecules.[12],[13] Incorporation of fluorine atoms can yield diverse effects and improvements in a drug’s pharmacological properties. In the case of the piperidine ring in compound 13, several key effects of fluorine substitution were predicted, including enhanced hydrogen bonding with Threonine-150, increased conformational rigidity of the piperidine ring, and reduced basicity. […] We postulated that the fluorine atom on the piperidine ring of compound 22, which preferentially stays in the axial position, can form a better hydrogen bond with the N-H group of Threonine-150. The enhanced cellular potency of compound 22 can be attributed to the enhanced permeability. […] Recently, insights into the conformational behavior of cis-fluorinated piperidines were reported.[14]

Series [6] relates to NUGC-3 tumor xenografts. The series is described as follows: NUGC-3 tumor xenograft efficacy in nude mice. Type of series: in vivo, mouse. The conditions noted are these: 150 mg/kg, same xenograft model. The method, then:
Compound 26 (rezatapopt; PC14586), which had the most favorable plasma exposure, was evaluated for its ability to inhibit the growth of NUGC-3 tumor xenografts in nude mice.
Study of C ompound 26 in NUGC-3 Xenograft
Female Balb/c nude mice, aged 4 to 6 weeks, were obtained from Envigo (Madison, WI). All mice were housed at the PMV Pharmaceuticals Vivarium. Mouse care and experimental procedures adhered to institutional guidelines for ethical use, with all research protocols approved by the Institutional Animal Care and Use Committees of PMV Pharmaceuticals. The mice were maintained at ambient temperatures of 68–72 °F, with 30–70% humidity, and a 12 -hour dark/light cycle.
NUGC-3 cells were resuspended at a concentration of 1×10^7 viable cells/mL in a 50:50 mixture of phosphate-buffered saline and Matrigel Matrix (Corning). Subsequently, 100 µL of the suspension was injected subcutaneously into the dorsal flankof the mice . Mice were selected and randomized into treatment groups based on tumor size.

The conditions of series [7]: female, CD-1, mouse, in vivo, po, 50 mg/kg.
Experimental: as §1, §2, §3, §4, §5
Setting [8] is: Table 1, concentration required to increase DNA binding by 1.5-fold.
Where [9] appears, read: Table 2, concentration required to increase DNA binding by 1.5-fold.
[10] abbreviates: Table 3, concentration required to increase DNA binding by 1.5-fold.

Structures are written as SMILES. Where two headings read alike, the source gives them in different places.

With `CCn1c(C#CCNc2ccccc2)cc2cc(CNC)ccc21` [Compound 1, N-[3-[1-ethyl-5-(methylaminomethyl)indol-2-yl]prop-2-ynyl]aniline], the SC150 in series [1] (Figure 1, enhancement of DNA binding) amounted to 13600 nM; in series [1] (setting [8]), 13600 nM. The half-life in series [2] amounted to 4 min.

Consider `COc1cc(S(C)(=O)=O)ccc1NCC#Cc1cc2c(NC3CCN(C)CC3)cccc2n1CC(F)(F)F` [Compound 13], for which the IC50 in series [3] (Table 2) amounted to 2100 nM. Moreover, in series [4] (Table 2, PO), the “Mouse PK Exposure AUC0-last” value is on record as 3545 ng·h/mL and the “Mouse PK Exposure Cmax” value is given as 903 ng/mL. Moreover, in series [1] (setting [8]), the SC150 came to 23 nM. Further, the SC150 in series [1] (setting [9]) is reported as 23 nM. The molecule also displayed a Papp in series [5] of 11.8 ×10⁻⁶ cm/s.

`COc1cc(S(C)(=O)=O)ccc1NCC#Cc1cc2c(N[C@@H]3CCN(C)C[C@@H]3F)cccc2n1CC(F)(F)F` [Compound 22, N-[(3S,4R)-3-fluoro-1-methyl-4-piperidyl]-2-[3-(2-methoxy-4-methylsulfonyl-anilino)prop-1-ynyl]-1-(2,2,2-trifluoroethyl)indol-4-amine]: in series [3] (Table 2), it took 300 nM to reach half-maximal inhibition (IC50). The IC50 in series [3] (Table 3) was determined as 325 nM. Also, the “fold increased potency compared with compound 13” value in series [3] (MTT assay, vs compound 13) is given as “approximately 7 fold”. Also, in series [4] (Table 2, PO), the “Mouse PK Exposure AUC0-last” value turned out to be 12567 ng·h/mL and the “Mouse PK Exposure Cmax” value is 2103 ng/mL. Also, in series [1] (setting [9]), the SC150 worked out at 8 nM. In addition, the Papp in series [5] worked out at 19.9 ×10⁻⁶ cm/s.

In the case of `COc1cc(S(N)(=O)=O)ccc1NCC#Cc1cc2c(N[C@@H]3CCN(C)C[C@@H]3F)cccc2n1CC(F)(F)F` [Compound 23, 4-((3-(4-(((3S,4R)-3-fluoro-1-methylpiperidin-4-yl)amino)-1-(2,2,2-trifluoroethyl)-1H-indol-2-yl)prop-2-yn-1-yl)amino)-3-methoxybenzenesulfonamide], the IC50 in series [3] (Table 3) was found to be 261 nM. Moreover, in series [4] (Table 3, PO), the “Mouse PK Exposure AUC0-last” value amounted to 8066 ng·h/mL and the “Mouse PK Exposure Cmax” value is 1310 ng/mL. The SC150 in series [1] (setting [10]) is given as 9 nM.

As for `COc1cc(C(=O)O)ccc1NCC#Cc1cc2c(N[C@@H]3CCN(C)C[C@@H]3F)cccc2n1CC(F)(F)F` [Compound 24, 4-((3-(4-(((3S,4R)-3-fluoro-1-methylpiperidin-4-yl)amino)-1-(2,2,2-trifluoroethyl)-1H-indol-2-yl)prop-2-yn-1-yl)amino)-3-methoxybenzoic acid], the midpoint of inhibition in series [3] (Table 3), the IC50, lay at 990 nM. For the same molecule, in series [4] (Table 3, PO), the “Mouse PK Exposure AUC0-last” value amounted to 57882 ng·h/mL and the “Mouse PK Exposure Cmax” value stood at 27700 ng/mL. The SC150 in series [1] (setting [10]) is 11 nM. Besides, in series [6], the tumor growth inhibition came to 54%.

Take `COc1cc(C(N)=O)ccc1NCC#Cc1cc2c(N[C@@H]3CCN(C)C[C@@H]3F)cccc2n1CC(F)(F)F` [Compound 25, 4-[3-[4-[[(3S,4R)-3-fluoro-1-methyl-4-piperidyl]amino]-1-(2,2,2-trifluoroethyl)indol-2-yl]prop-2-ynyl-amino]-3-methoxy-benzamide]: the IC50 in series [3] (Table 3) amounted to 446 nM. In series [4] (Table 3, PO), the “Mouse PK Exposure AUC0-last” value came to 39774 ng·h/mL and the “Mouse PK Exposure Cmax” value is on record as 4473 ng/mL. For the same molecule, the SC150 in series [1] (setting [10]) is given as 8 nM.

For the molecule `COc1cc(C(=O)NC2CCOCC2)ccc1NCC#Cc1cc2c(N[C@@H]3CCN(C)C[C@@H]3F)cccc2n1CC(F)(F)F` [Compound 27, 4-((3-(4-(((3S,4R)-3-fluoro-1-methylpiperidin-4-yl)amino)-1-(2,2,2-trifluoroethyl)-1H-indol-2-yl)prop-2-yn-1-yl)amino)-3-methoxy-N-(tetrahydro-2H-pyran-4-yl)benzamide], the midpoint of inhibition in series [3] (Table 3), the IC50, lay at 531 nM. Further, in series [4] (Table 3, PO), the “Mouse PK Exposure AUC0-last” value is on record as 3261 ng·h/mL and the “Mouse PK Exposure Cmax” value worked out at 807 ng/mL. The SC150 in series [1] (setting [10]) was found to be 7 nM.

On to `COc1cc(C(=O)N2CC3(COC3)C2)ccc1NCC#Cc1cc2c(N[C@@H]3CCN(C)C[C@@H]3F)cccc2n1CC(F)(F)F` [Compound 28, [4-[3-[4-[[(3S,4R)-3-fluoro-1-methyl-4-piperidyl]amino]-1-(2,2,2-trifluoroethyl)indol-2-yl]prop-2-ynyl-amino]-3-methoxy-phenyl]-(2-oxa-6-azaspiro[3.3]heptan-6-yl)methanone], for which, in series [7], the “Mouse PK Exposure AUC0-last” value came to 15328 ng·h/mL and the “Mouse PK Exposure Cmax” value is recorded as 2747 ng/mL. In series [3] (Table 3), this molecule had an IC50 of 457 nM. Also, in series [1] (setting [10]), the SC150 stood at 7 nM.

In series [3] (Table 3), `COc1cc(C(=O)NCC(O)CO)ccc1NCC#Cc1cc2c(N[C@@H]3CCN(C)C[C@@H]3F)cccc2n1CC(F)(F)F` (stereo partly drawn) [Compound 29, N-(2,3-dihydroxypropyl)-4-[3-[4-[[(3S,4R)-3-fluoro-1-methyl-4-piperidyl]amino]-1-(2,2,2-trifluoroethyl)indol-2-yl]prop-2-ynylamino]-3-methoxy-benzamide] registered an IC50 of 574 nM. Further, in series [4] (Table 3, PO), the “Mouse PK Exposure AUC0-last” value worked out at 117 ng·h/mL and the “Mouse PK Exposure Cmax” value worked out at 54 ng/mL. In series [1] (setting [10]), the SC150 was 8 nM.
